Assay results: article PMC8343220, “The selectivity of α‐adrenoceptor agonists for the human α1A, α1B, and α1D‐adrenoceptors” (Pharmacology Research & Perspectives, 2021)

Legend:
[1] = tested on: parental CHO cell line without any transfected receptors; test: ERK1/2‐phosphorylation, parent CHO cells without transfected receptors; format: cell-based, Chinese hamster
human α1A‐adrenoceptor [2] = biological target: T1, human α1A‐adrenoceptor (Homo sapiens, UniProt P35348); conditions: CHO‐α1A cells; given as log KD (negative); ligands marked ^a; ref Proudman et al., 2020; cited from earlier work
T1 construct: expressed in transfected cells; host or cells: CHO-K1
T1 sequence (P35348 1-466): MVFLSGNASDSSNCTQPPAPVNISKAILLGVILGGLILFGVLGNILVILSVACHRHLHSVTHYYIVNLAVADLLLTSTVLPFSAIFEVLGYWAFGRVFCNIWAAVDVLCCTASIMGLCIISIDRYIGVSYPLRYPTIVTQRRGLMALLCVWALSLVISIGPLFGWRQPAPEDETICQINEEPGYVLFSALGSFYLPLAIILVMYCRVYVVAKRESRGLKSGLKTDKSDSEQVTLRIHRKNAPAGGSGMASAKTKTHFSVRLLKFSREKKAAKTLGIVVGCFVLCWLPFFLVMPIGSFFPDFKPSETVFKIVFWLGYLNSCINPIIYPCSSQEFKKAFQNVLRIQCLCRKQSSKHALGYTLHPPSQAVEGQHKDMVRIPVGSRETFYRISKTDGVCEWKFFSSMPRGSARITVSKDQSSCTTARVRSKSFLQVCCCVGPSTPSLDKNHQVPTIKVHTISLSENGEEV

[3] = biological target: T2, human α1D‐adrenoceptor (full length) (Homo sapiens, UniProt P25100); test: ERK1/2‐phosphorylation (Surefire Alphascreen), CHO‐α1D cells; format: cell-based
T2 construct: human α1D‐adrenoceptor (full length) were used; expressed in transfected cells; host or cells: CHO-K1
T2 sequence (P25100 1-572): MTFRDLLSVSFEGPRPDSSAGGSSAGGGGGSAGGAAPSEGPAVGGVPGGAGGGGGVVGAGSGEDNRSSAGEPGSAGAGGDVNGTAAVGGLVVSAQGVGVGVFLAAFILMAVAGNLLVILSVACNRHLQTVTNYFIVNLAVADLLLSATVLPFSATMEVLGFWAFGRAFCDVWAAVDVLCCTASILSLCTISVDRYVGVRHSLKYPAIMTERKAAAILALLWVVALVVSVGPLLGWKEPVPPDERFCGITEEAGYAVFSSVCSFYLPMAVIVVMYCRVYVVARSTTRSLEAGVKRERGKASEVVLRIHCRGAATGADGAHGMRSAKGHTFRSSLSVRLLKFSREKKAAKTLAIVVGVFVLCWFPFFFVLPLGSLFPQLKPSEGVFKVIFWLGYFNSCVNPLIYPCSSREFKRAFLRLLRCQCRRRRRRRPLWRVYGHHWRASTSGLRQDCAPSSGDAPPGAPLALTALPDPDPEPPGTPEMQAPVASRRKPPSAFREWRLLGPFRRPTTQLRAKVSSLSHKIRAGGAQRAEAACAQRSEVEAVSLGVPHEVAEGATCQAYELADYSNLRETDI

human α1A‐adrenoceptor [4] = biological target: T1, human α1A‐adrenoceptor; test: ^3H‐cAMP accumulation, CHO‐α1A cells; format: cell-based; conditions: CHO‐α1A cells
human α1A‐adrenoceptor [5] = biological target: T1, human α1A‐adrenoceptor; test: Intracellular free calcium mobilization, CHO‐α1A cells; format: cell-based
human α1A‐adrenoceptor [6] = biological target: T1, human α1A‐adrenoceptor; test: ^3H‐prazosin whole‐cell radioligand binding, CHO‐α1A cells
[7] = tested on: parental CHO cell line without any transfected receptors; test: Forskolin‐stimulated cAMP accumulation, parent CHO cells without transfected receptors; format: cell-based, Chinese hamster
human α1A‐adrenoceptor [8] = biological target: T1, human α1A‐adrenoceptor; test: ERK1/2‐phosphorylation (Surefire Alphascreen), CHO‐α1A cells; format: cell-based
human α1B‐adrenoceptor [9] = biological target: T3, human α1B‐adrenoceptor (Homo sapiens, UniProt P35368); test: ERK1/2‐phosphorylation (Surefire Alphascreen), CHO‐α1B cells; format: cell-based
T3 construct: expressed in transfected cells; host or cells: CHO-K1
T3 sequence (P35368 1-520): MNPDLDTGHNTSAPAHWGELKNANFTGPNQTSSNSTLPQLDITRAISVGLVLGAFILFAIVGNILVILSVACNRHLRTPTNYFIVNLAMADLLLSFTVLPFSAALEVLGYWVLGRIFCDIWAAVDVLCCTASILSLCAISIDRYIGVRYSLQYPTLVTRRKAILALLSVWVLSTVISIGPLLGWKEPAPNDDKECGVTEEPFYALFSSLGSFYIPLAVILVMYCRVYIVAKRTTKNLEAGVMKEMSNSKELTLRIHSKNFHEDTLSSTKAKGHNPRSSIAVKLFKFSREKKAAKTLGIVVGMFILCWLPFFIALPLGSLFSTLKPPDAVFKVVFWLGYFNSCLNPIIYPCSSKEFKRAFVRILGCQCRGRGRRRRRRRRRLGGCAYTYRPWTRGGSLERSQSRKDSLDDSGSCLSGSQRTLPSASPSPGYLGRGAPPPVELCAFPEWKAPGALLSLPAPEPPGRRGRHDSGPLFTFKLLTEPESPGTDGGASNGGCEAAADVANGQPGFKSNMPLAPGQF

[10] = biological target: T2, human α1D‐adrenoceptor (full length); test: Intracellular free calcium mobilization, CHO‐α1D cells; format: cell-based
human α1B‐adrenoceptor [11] = biological target: T3, human α1B‐adrenoceptor; conditions: CHO‐α1B cells; given as log KD (negative); ligands marked ^a; ref Proudman et al., 2020; cited from earlier work
human α1A‐adrenoceptor [12] = biological target: T1, human α1A‐adrenoceptor; test: ^3H‐cAMP accumulation in the presence of 10 μM forskolin, CHO‐α1A cells; format: cell-based; conditions: CHO‐α1A cells
[13] = tested on: parental CHO cell line without any transfected receptors; test: Intracellular calcium mobilization, parent CHO cells without transfected receptors; format: cell-based, Chinese hamster
[14] = biological target: T2, human α1D‐adrenoceptor (full length); conditions: CHO‐α1D cells; ligands marked ^a; ref Proudman et al., 2020; cited from earlier work
[15] = biological target: T2, human α1D‐adrenoceptor (full length); test: ^3H‐prazosin whole‐cell radioligand binding, CHO‐α1D cells
human α1B‐adrenoceptor [16] = biological target: T3, human α1B‐adrenoceptor; test: Intracellular free calcium mobilization, CHO‐α1B cells; format: cell-based
[17] = tested on: parental CHO cell line without any transfected receptors; test: ^3H‐cAMP accumulation, parent CHO cells without transfected receptors; format: cell-based, Chinese hamster

Compound: CCC1(C2=NCCN2)Cc2ccccc2O1 (stereo not drawn) [Eforaxan]
- ERK1/2-phosphorylation % PDBu [1]: No response
- ERK1/2-phosphorylation Log EC50 [1]: No response
- Log KD α1A, ^3H‐prazosin whole cell binding (human α1A‐adrenoceptor [2]): −5.47 ± 0.03
- ERK1/2‐phosphorylation % PDBu at 100 µM [3]: 2.7 ± 1.5%
- cAMP accumulation Log EC50 (human α1A‐adrenoceptor [4]; 5 h): −5.47 ± 0.10
- cAMP accumulation % forskolin (human α1A‐adrenoceptor [4]; % of 10 µM forskolin response): 4.0 ± 0.6%
- Intracellular calcium release % ionomycin (human α1A‐adrenoceptor [5]): 45.0 ± 2.6%
- Intracellular calcium release Log EC50 (human α1A‐adrenoceptor [5]): −6.83 ± 0.10
- Log efficacy ratio KD /EC50 (human α1A‐adrenoceptor [5]): 1.36
- Affinity selectivity ratio α1A vs α1B (human α1A‐adrenoceptor [6]): 15.8 fold
- Affinity selectivity ratio α1A vs α1D (human α1A‐adrenoceptor [6]): 3.2 fold
- cAMP accumulation (in presence of forskolin) % forskolin-stim cAMP [7]: No response
- cAMP accumulation (in presence of forskolin) Log EC50 [7]: No response
- ERK1/2‐phosphorylation % PDBu (human α1A‐adrenoceptor [8]): 76.4 ± 5.2%
- ERK1/2‐phosphorylation Log EC50 (human α1A‐adrenoceptor [8]): −6.12 ± 0.07
- ERK1/2‐phosphorylation % PDBu at 100 µM (human α1B‐adrenoceptor [9]): 11.9 ± 2.4%
- Intracellular calcium release % Ionomycin at 100 µM [10]: 2.8 ± 0.8%
- Log KD α1B, ^3H‐prazosin whole cell binding (human α1B‐adrenoceptor [11]): −4.27 ± 0.07
- cAMP accumulation (in presence of forskolin) Log EC50 (human α1A‐adrenoceptor [12]; 10 μM forskolin): −5.93 ± 0.13
- cAMP accumulation (in presence of forskolin) Fold increase (human α1A‐adrenoceptor [12]; fold increase of the forskolin response): 1.47 ± 0.13 fold
- Intracellular calcium release % ionomycin [13]: No response
- Log KD α1D, ^3H‐prazosin whole cell binding (single site or first, higher affinity component) [14]: −4.97 ± 0.06
- 3H‐prazosin binding Log KD [15]: −4.97
- Affinity selectivity ratio α1B vs α1D [15]: 5.0 fold
- Intracellular calcium release % ionomycin (human α1B‐adrenoceptor [16]): No response
- Intracellular calcium release Log EC50 (human α1B‐adrenoceptor [16]): No response
- cAMP accumulation % forskolin [17]: No response

Compound: O=C1CCC(=O)N1C[C@H]1CC[C@H]2CN(c3ncccn3)CCN2C1 [Sunepitrion]
- ERK1/2-phosphorylation % PDBu at 100μM [1]: 4.1 ± 2.7%
- Log KD α1A, ^3H‐prazosin whole cell binding (human α1A‐adrenoceptor [2]): −5.78 ± 0.06
- ERK1/2‐phosphorylation % PDBu at 100 µM [3]: 2.4 ± 1.1%
- Intracellular calcium release % ionomycin (human α1A‐adrenoceptor [5]): 30.1 ± 3.0%
- Intracellular calcium release Log EC50 (human α1A‐adrenoceptor [5]): −6.17 ± 0.14
- Log efficacy ratio KD /EC50 (human α1A‐adrenoceptor [5]): 0.39
- Affinity selectivity ratio α1A vs α1B (human α1A‐adrenoceptor [6]): 13.5 fold
- Affinity selectivity ratio α1A vs α1D (human α1A‐adrenoceptor [6]): 2.8 fold
- ERK1/2‐phosphorylation % PDBu (human α1A‐adrenoceptor [8]): 39.7 ± 8.4%
- ERK1/2‐phosphorylation Log EC50 (human α1A‐adrenoceptor [8]): −5.96 ± 0.12
- ERK1/2‐phosphorylation % PDBu (human α1B‐adrenoceptor [9]): 7.8 ± 2.8%
- Intracellular calcium release % Ionomycin at 100 µM [10]: 2.5 ± 0.5%
- Log KD α1B, ^3H‐prazosin whole cell binding (human α1B‐adrenoceptor [11]): −4.65 ± 0.06
- Intracellular calcium release % ionomycin [13]: No response
- Log KD α1D, ^3H‐prazosin whole cell binding (single site or first, higher affinity component) [14]: −5.33 ± 0.23
- 3H‐prazosin binding Log KD [15]: −5.33
- Affinity selectivity ratio α1B vs α1D [15]: 4.8 fold
- Intracellular calcium release % Ionomycin at 100 µM (human α1B‐adrenoceptor [16]): 8.2 ± 1.3%
